The values below come from patent publication US20090054312A1, “SMIPs: Small molecule inhibitors of p27 depletion in cancers and other proliferative diseases” (priority 2007, published 2009).

This experiment concerns p27 levels in LNCaP-S14 cells. Kind of experiment: p27 immunofluorescence screening assay in LNCaP-S14 cells. As to all read-outs here: test concentration or dose not given here. The settings on record: cell line not given; for % positive: p27-positive cells; for Z score: Table 1, standard deviations from plate mean.
[1] abbreviates: Table 1, compounds showing SMIP activity in the secondary screen.

Counter-ions that a name gives are not always drawn.

`O=C(CSC1=NNC(c2ccccn2)S1)c1cccc(F)c1` (stereo not shown) [1-(3-fluorophenyl)-2-[(5-pyridin-2-yl-4,5-dihydro-1,3,4-thiadiazol-2-yl)sulfanyl]ethanone] came in with a Z score of 15.1024. For the same molecule, under setting [1], the “% positive” value was 25.37%.

The molecule `O=c1c(C(F)(F)F)cccn1CCc1nc(-c2ccccc2)cs1` [1-[2-(4-phenyl-1,3-thiazol-2-yl)ethyl]-3-(trifluoromethyl)pyridin-2(1H)-one] came in with a Z score of 4.1344. For the same molecule, under setting [1], the “% positive” value is recorded as 10.24%.

Take `Cc1cccn2c(=O)c3c(nc12)CCN(C(=O)c1ccc(C(C)(C)C)cc1)C3` [2-(4-tert-butylbenzoyl)-6-methyl-1,2,3,4-tetrahydro-11H-dipyrido-[1,2-a:4′,3′-d]pyrimidin-11-one]: the Z score was 10.7588. Moreover, under setting [1], the “% positive” value was 19.38%.

In turn, `CS(=O)(=O)c1ccc(/C=C/C(=O)Nc2cccc(C(F)(F)F)c2)cc1` [3-[4-(methylsulfonyl)phenyl]-N-[3-trifluoromethyl]phenyl]-(2E)-propenamide] showed a Z score of 26.8318. Besides, under setting [1], the “% positive” value was 41.56%.

As for `O=C1C(Cl)=C(N2CCC(C(=O)N3CCOCC3)CC2)C(=O)c2ccccc21` [3-chloro-2-[4-(morpholine-4-carbonyl)-1-piperidyl]naphthalene-1,4-dione], the Z score came out at 5.7130. Also, the “% positive” value under setting [1] came out at 12.42%.

Consider `COc1cc(OC)c(CN2CC[C@H](NC(=O)c3ccc(-n4nc(C(C)(C)C)cc4C(C)(C)C)cc3)C2)c(OC)c1` [4-(3,5-di-tert-butyl-1H-pyrazol-1-yl)-N-[(3S)-1-(2,4,6-trimethoxybenzyl)pyrrolidin-3-yl]benzamide], for which the Z score is 7.0595. The “% positive” value under setting [1] worked out at 14.27%.

`CC1CN(C(=O)c2cc(-c3ccc(Cl)cc3)cs2)CC(C)O1` (stereo not shown) [4-[[(4-(4-chlorophenyl)thiophen-2-yl]carbonyl]-2,6-dimethylmorpholine] displayed a Z score of 14.0559. For the same molecule, the “% positive” value under setting [1] is 23.93%.

Consider `Nc1ncn([C@@H]2O[C@H](CO)[C@@H](O)[C@H]2O)c(=O)n1` [5-Azacytidine, reference compound], for which the Z score stood at 4.5963. Further, the “% positive” value under setting [1] amounted to 10.87%.

The molecule `CCCCCCSc1nnc(N)s1` [5-hexylsulfanyl-1,3,4-thiadiazol-2-amine] returned a Z score of 24.6282. The “% positive” value under setting [1] amounted to 38.52%.

Take `Cc1[nH]cnc1-c1ccc(C(F)(F)F)cc1` [5-methyl-4-(4-(trifluoromethyl)phenyl)-(1H)-imidazole]: the Z score was found to be 2.4371. Further, under setting [1], the “% positive” value is recorded as 7.89%.

`CCOC(=O)c1cc2cccc(NC(=O)c3ccccc3OC(C)=O)c2[nH]1` [7-[(2-acetoxybenzoyl)amino]-1H-indole-2-carboxylic acid, ethyl ester] had a Z score of 34.1083. The “% positive” value under setting [1] turned out to be 51.60%.

Consider `COc1ccc2[nH]cc(CCNC(=O)OC[C@@H]3C[C@H]4CC[C@@H]3C4)c2c1` [(1R,2R,4S)-bicyclo[2.2.1]hept-2-ylmethyl[2-(5-methoxy-1H-indol-3-yl)ethyl]carbamate], for which the Z score was 10.7664. For the same molecule, the “% positive” value under setting [1] is listed as 19.39%.

Molecule `O=C(OCn1ncc(Cl)c(Cl)c1=O)c1ccc(C(F)(F)F)cc1` [(4,5-dichloro-6-oxo-pyridazin-1-yl)methyl-4-(trifluoromethyl)benzoate] returned a Z score of 21.2964. The “% positive” value under setting [1] is reported as 33.92%.

Take `O=C(OCn1ncc(Cl)c(Cl)c1=O)c1cccc(C(F)(F)F)c1` [(4,5-dichloro-6-oxopyridazin-1(6H)-yl)methyl-3-(trifluoromethyl)benzoate]: the Z score is reported as 3.0023. Under setting [1], the “% positive” value is given as 8.67%.

As for `CC[C@@]1(O)C[C@H](O[C@H]2C[C@H](N(C)C)[C@H](O[C@H]3C[C@H](O)[C@H](O[C@H]4CCC(=O)[C@H](C)O4)[C@H](C)O3)[C@H](C)O2)c2c(cc3c(c2O)C(=O)c2c(O)cccc2C3=O)[C@H]1C(=O)OC` [Aclarubicin, reference compound], the Z score turned out to be 4.5990. Under “[…]”, the “% positive” value came out at 10.89%.

Consider `CCCCC(CC)CNC(=N)NC(=N)NCCCCCCNC(=N)NC(=N)NCC(CC)CCCC` (stereo not shown) [Alexidine hydrochloride, reference compound], for which the Z score is given as 9.38. For the same molecule, the “% positive” value under setting [1] was found to be 17.48%.

For `COc1ccc(CCN2CCC(Nc3nc4ccccc4n3Cc3ccc(F)cc3)CC2)cc1` [Astemizole, reference compound], the Z score amounted to 2.0598. For the same molecule, under setting [1], the “% positive” value is 7.37%.

The molecule `CC(C)COCC(CN(Cc1ccccc1)c1ccccc1)N1CCCC1` (stereo not shown) [Bepridil hydrochloride, reference compound] had a Z score of 2.9020. For the same molecule, the “% positive” value under setting [1] is 8.54%.

Molecule `CC[C@@]1(O)C(=O)OCc2c1cc1n(c2=O)Cc2cc3ccccc3nc2-1` [Camptothecin, reference compound] gave a Z score of 23.6514. Moreover, the “% positive” value under setting [1] was determined as 37.17%.

`[H]/N=C(\N/C(=N/[H])NCCCCCCNC(=N)NC(=N)Nc1ccc(Cl)cc1)Nc1ccc(Cl)cc1` [Chlorhexidine hydrochloride, reference compound] displayed a Z score of 15.4338. The “% positive” value under setting [1] was found to be 25.83%.

In turn, `CN(C)CC/C=C1/c2ccccc2Sc2ccc(Cl)cc21` [Chlorprothixene hydrochloride, reference compound] had a Z score of 2.1477. Moreover, under setting [1], the “% positive” value is 7.49%.

For the molecule `Cc1cc(C2CCCCC2)n(O)c(=O)c1` [Ciclopirox olamine, reference compound], the Z score is given as 17.3996. For the same molecule, the “% positive” value under setting [1] is listed as 28.54%.

In the case of `Cc1cc(N)c2ccccc2[n+]1CCCCCCCCCC[n+]1c(C)cc(N)c2ccccc21` [Dequalinium chloride, reference compound], the Z score amounted to 18.6318. In addition, under setting [1], the “% positive” value stood at 30.24%.

`Oc1ccc(Cl)cc1Cc1cc(Cl)ccc1O` [Dichlorophene, reference compound] had a Z score of 5.6065. In addition, the “% positive” value under setting [1] was found to be 12.27%.

In the case of `C=C(CC)C(=O)c1ccc(OCC(=O)O)c(Cl)c1Cl` [Ethacrynic acid, reference compound], the Z score was 10.2724. Besides, the “% positive” value under setting [1] was 18.71%.

`COc1cc([C@@H]2c3cc4c(cc3[C@@H](O[C@@H]3O[C@@H]5CO[C@@H](C)O[C@H]5[C@H](O)[C@H]3O)[C@H]3COC(=O)[C@H]23)OCO4)cc(OC)c1O` [Etoposide, reference compound] showed a Z score of 25.6406. In addition, under setting [1], the “% positive” value was determined as 39.92%.

Turning to `COC(=O)Nc1nc2ccc(Sc3ccccc3)cc2[nH]1` [Fenbendazole, reference compound], the Z score is recorded as −0.0511. For the same molecule, the “% positive” value under setting [1] stood at 4.46%.

Turning to `Cc1cc2c(C(C)C)c(O)c(O)c(C=O)c2c(O)c1-c1c(C)cc2c(C(C)C)c(O)c(O)c(C=O)c2c1O` [Gossypol, reference compound], the Z score turned out to be 3.1932. For the same molecule, the “% positive” value ([…]) is recorded as 8.94%.

Consider `CC[C@@H](C(=O)[C@@H](C)[C@@H](O)[C@H](C)CCc1ccc(C)c(O)c1C(=O)O)[C@H]1O[C@](CC)([C@H]2CC[C@](O)(CC)[C@H](C)O2)C[C@@H]1C` [Lasalocid sodium, reference compound], for which the Z score came out at 29.4743. For the same molecule, the “% positive” value under setting [1] was found to be 45.21%.
